According to patent US20130184272A1, “DIABETES THERAPEUTIC AGENT” (TAKEDA PHARMACEUTICAL COMPANY LIMITED, priority 2010, published 2013):

Columns and labels:
[1] = system: succinic acid dehydrogenase activity of mitochondria; test: Succinic acid dehydrogenase activity in muscle cell; format: cell-based, Mouse; conditions: for succinic acid dehydrogenase activity: two days, control group 100
Method: • (1) In the same manner as in Example 1, C2C12 cells were cultured in a growth medium to not less than 90% confluence. • (2) The medium was exchanged with a differentiation medium, and the cells were cultured until observation of myotube formation under a microscope. • (3) The compounds of Reference Example 1 and Reference Example 7 were added, and the cells were cultured for two days. • (4) ATP content was measured using Cell Titer-Glo™ Luminescence cell viable assay (Promega) and succinic acid dehydrogenase activity of mitochondria was measured using Cell Counting Kit-8 (Dojin). The data of Table 17 show mean±standard deviation at n=3-4 (n is the number of samples).

[2] = system: Male C57BL/6J mice on a high-fat diet; test: Antiobesity, dyslipidemia and diabetes improving effect in mouse fed with high-fat diet; format: in vivo; set-up: plasma leptin (mg/dL): unit not given here; conditions: for epididymal fat mass / gastrocnemius muscle weight (g/100 g body weight) / hepatocyte weight / mesenteric fat mass: Day 38
Method: Male C57BL/6J mice (CLEA Japan, Inc.) were bred from 5-week-old on a high-fat diet (D12451, research diet) while allowing free ingestion of both feed and water to prepare obesity mice. The mice were bred for acclimation for 2 weeks from 21-week-old. The body weight and plasma markers were measured when 23-week-old, the mice were divided into 6 groups (6 per group) such that the values thereof were uniform, and Reference Example 1 (0.01-0.1 mg/kg) or Reference Example 7 (1-3 mg/kg) was orally administered for 5 weeks. After 14 and 28 days, plasma levels of total cholesterol, neutral lipid, glucose, insulin, leptin, adiponectin and glycated hemoglobin were measured. On the last day, the mice were autopsied, and weights of mesenteric fat, epididymal fat, liver and gastrocnemius muscle were measured. The data of Table 18 show mean±standard deviation at n=5-6 (n is the number of samples).

C2C12 cell = test: Sugar metabolism promoting activity in muscle cell (lactic acid production); format: cell-based, Mouse; conditions: Mus musculus, 48 h; compound 1 μM, 2 days, C2C12 myotubes; without drug = 100%; read-out: lactic acid production promoting action (%)
Method: • (1) In the same manner as in Example 1, C2C12 cell was cultured in a growth medium. After reaching subconfluence of not less than 90%, the medium was exchanged with a differentiation medium and the cells were cultured for about 7 days while exchanging the medium every 2 or 3 days until the cells differentiated to form a myotube. • (2) After confirmation of myotube formation under a microscope, the test compound (1 μM) was added to a differentiation medium and cultured for 2 days. The cells were washed with Krebs-Ringer HEPES phosphate buffer (10 mM HEPES, pH 7.4, 131 mM NaCl, 4.7 mM KCl, 2.5 mM CaCl2—2H2O, 1.2 mM MgSO4—7H2O, 1.2 mM KH2PO4), the medium was exchanged with Krebs-Ringer HEPES phosphate buffer added with 5 mM glucose, 0.2% fatty acid-free bovine serum albumin, and cultured at 37° C. for 4 hr. • (3) The lactic acid concentration of the culture supernatant was measured using Detarminer LA kit (Kyowa Medex Co., Ltd.).
The numerical values in Table 2 show the concentration of the compound addition group with the concentration of lactic acid without addition of a drug as 100%.

## Cn1ncc2c1-c1c(Oc3cccnc3)sc(C(N)=O)c1CC2 [Ref. Ex. 7, 1-methyl-8-(pyridin-3-yloxy)-4,5-dihydro-1H-thieno[3,4-g]indazole-6-carboxamide]
[1]
  succinic acid dehydrogenase activity (in words): increased
[1]; compound 1 nM
  succinic acid dehydrogenase activity: 111 ± 3
[1]; compound 10 nM
  succinic acid dehydrogenase activity: 120 ± 4
[1]; compound 100 nM
  succinic acid dehydrogenase activity: 131 ± 7
[2]; 1 mg/kg oral
  average amount of ingestion: 3.6 ± 0.2 g/day
  body weight (g) change: 4.0 ± 1.5 g
  epididymal fat mass: 0.78 ± 0.11 g
  gastrocnemius muscle weight (g/100 g body weight): 0.360 ± 0.014 g/100 g body weight
  hepatocyte weight: 1.85 ± 0.30 g
  mesenteric fat mass: 0.95 ± 0.14 g
[2]; 1 mg/kg oral, Day 0
  body weight: 41.2 ± 1.8 g
  glycated hemoglobin (%): 4.4 ± 0.1%
  plasma adiponectin (μg/dL)): 18.3 ± 2.8 µg/dL
  plasma glucose: 168.4 ± 29.1 mg/dL
  plasma insulin: 5.3 ± 3.5 ng/mL
  plasma leptin (mg/dL): 61.4 ± 18.1
  plasma neutral fats: 69.8 ± 35.0 mg/dL
  plasma total cholesterol: 227.2 ± 21.2 mg/dL
[2]; 1 mg/kg oral, Day 14
  glycated hemoglobin (%): 4.2 ± 0.2%
  plasma adiponectin (μg/dL)): 14.9 ± 3.4 µg/dL
  plasma glucose: 157.5 ± 19.4 mg/dL
  plasma insulin: 7.8 ± 3.3 ng/mL
  plasma leptin (mg/dL): 86.9 ± 12.0
  plasma neutral fats: 68.8 ± 16.0 mg/dL
  plasma total cholesterol: 213.8 ± 13.0 mg/dL
[2]; 1 mg/kg oral, Day 28
  glycated hemoglobin (%): 4.0 ± 0.1%
  plasma adiponectin (μg/dL)): 12.2 ± 2.3 µg/dL
  plasma glucose: 149.7 ± 16.9 mg/dL
  plasma insulin: 12.3 ± 4.9 ng/mL
  plasma leptin (mg/dL): 96.1 ± 10.2
  plasma neutral fats: 62.1 ± 26.1 mg/dL
  plasma total cholesterol: 216.8 ± 20.7 mg/dL
[2]; 1 mg/kg oral, Day 37
  body weight: 45.6 ± 3.0 g
[2]; 3 mg/kg oral
  average amount of ingestion: 3.7 ± 0.2 g/day
  body weight (g) change: 2.3 ± 2.3 g
  epididymal fat mass: 0.77 ± 0.15 g
  gastrocnemius muscle weight (g/100 g body weight): 0.375 ± 0.020 g/100 g body weight
  hepatocyte weight: 1.74 ± 0.30 g
  mesenteric fat mass: 0.77 ± 0.24 g
[2]; 3 mg/kg oral, Day 0
  body weight: 41.1 ± 1.7 g
  glycated hemoglobin (%): 4.6 ± 0.1%
  plasma adiponectin (μg/dL)): 17.0 ± 2.9 µg/dL
  plasma glucose: 176.9 ± 30.1 mg/dL
  plasma insulin: 5.1 ± 2.3 ng/mL
  plasma leptin (mg/dL): 62.3 ± 10.9
  plasma neutral fats: 71.6 ± 28.8 mg/dL
  plasma total cholesterol: 231.9 ± 29.9 mg/dL
[2]; 3 mg/kg oral, Day 14
  glycated hemoglobin (%): 4.0 ± 0.3%
  plasma adiponectin (μg/dL)): 15.2 ± 3.0 µg/dL
  plasma glucose: 172.8 ± 32.3 mg/dL
  plasma insulin: 6.2 ± 3.0 ng/mL
  plasma leptin (mg/dL): 73.5 ± 12.6
  plasma neutral fats: 47.0 ± 9.2 mg/dL
  plasma total cholesterol: 192.8 ± 12.5 mg/dL
[2]; 3 mg/kg oral, Day 28
  glycated hemoglobin (%): 4.0 ± 0.2%
  plasma adiponectin (μg/dL)): 12.8 ± 0.8 µg/dL
  plasma glucose: 155.9 ± 12.7 mg/dL
  plasma insulin: 5.8 ± 1.4 ng/mL
  plasma leptin (mg/dL): 77.3 ± 16.3
  plasma neutral fats: 53.6 ± 35.6 mg/dL
  plasma total cholesterol: 194.1 ± 18.4 mg/dL
[2]; 3 mg/kg oral, Day 37
  body weight: 44.0 ± 2.4 g
[2]; obese mouse model fed with a high-fat diet
  body weight (in words): clear body weight decreasing action
C2C12 cell
  activity at 1 µM: 254%
